Consider eleven compounds from US20260337208A1, “HETEROCYCLIC DERIVATIVES AS JANUS KINASE INHIBITORS” (CHIESI FARMACEUTICI S.P.A., priority 2022, published 2026).

In one assay the target is JAK2 (Homo sapiens, UniProt O60674). Briefly: Biochemical potency on JAK2, TR-FRET (LANCE Ultra kinase assay). As to conditions: ATP corresponding to Km; cell-free; read-out: JAK2 inhibitory activity (pIC50) (converted). The procedure, abridged: (§1)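 ULight-JAK-1 (Tyr1023) peptide phosphorylation at Km ATP, 1.5 h r.t.; substrate solution held peptide 30/50/20/10 nM and ATP 20/0.7/0.2/12 μM, enzyme solution 0.15/0.083/0.025/0.144 ng/μL (JAK1/JAK2/JAK3/TYK2). EDTA stop, Eu-PT66 antibody TR-FRET read at 665 nm; 11-point 5-fold dilutions from 20 μM; IC50 by variable-slope fit.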
Sequence of JAK2 (O60674 whole entry): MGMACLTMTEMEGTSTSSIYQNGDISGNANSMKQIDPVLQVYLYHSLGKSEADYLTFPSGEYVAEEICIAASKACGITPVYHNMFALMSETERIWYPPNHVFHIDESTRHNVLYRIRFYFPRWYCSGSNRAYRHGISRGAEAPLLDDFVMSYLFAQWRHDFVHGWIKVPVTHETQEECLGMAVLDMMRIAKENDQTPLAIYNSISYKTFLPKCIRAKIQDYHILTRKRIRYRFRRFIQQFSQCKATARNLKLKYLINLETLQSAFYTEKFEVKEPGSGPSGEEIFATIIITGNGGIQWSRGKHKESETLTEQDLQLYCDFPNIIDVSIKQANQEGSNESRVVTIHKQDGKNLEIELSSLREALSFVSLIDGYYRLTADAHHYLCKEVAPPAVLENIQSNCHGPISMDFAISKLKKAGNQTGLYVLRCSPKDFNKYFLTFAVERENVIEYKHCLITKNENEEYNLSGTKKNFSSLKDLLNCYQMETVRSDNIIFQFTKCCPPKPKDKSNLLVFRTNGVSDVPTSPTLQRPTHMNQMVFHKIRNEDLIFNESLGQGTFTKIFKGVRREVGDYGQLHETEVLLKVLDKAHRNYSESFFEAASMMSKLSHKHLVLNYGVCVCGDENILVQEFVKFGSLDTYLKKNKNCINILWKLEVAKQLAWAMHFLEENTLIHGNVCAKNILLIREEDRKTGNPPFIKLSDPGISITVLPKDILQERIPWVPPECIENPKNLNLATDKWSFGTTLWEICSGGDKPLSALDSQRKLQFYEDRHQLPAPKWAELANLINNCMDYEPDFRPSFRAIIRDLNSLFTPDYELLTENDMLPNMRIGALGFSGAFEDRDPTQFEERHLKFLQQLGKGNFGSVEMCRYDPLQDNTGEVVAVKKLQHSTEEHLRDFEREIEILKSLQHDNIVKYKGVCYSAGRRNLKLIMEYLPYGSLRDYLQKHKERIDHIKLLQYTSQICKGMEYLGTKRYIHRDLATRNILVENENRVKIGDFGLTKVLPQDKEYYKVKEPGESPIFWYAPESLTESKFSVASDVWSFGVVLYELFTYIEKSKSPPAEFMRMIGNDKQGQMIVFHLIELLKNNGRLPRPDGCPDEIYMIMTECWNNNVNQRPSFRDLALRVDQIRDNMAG

The target in the next assay is T1, JAK3 (Homo sapiens, UniProt P52333).
T1 sequence (P52333 1-1124): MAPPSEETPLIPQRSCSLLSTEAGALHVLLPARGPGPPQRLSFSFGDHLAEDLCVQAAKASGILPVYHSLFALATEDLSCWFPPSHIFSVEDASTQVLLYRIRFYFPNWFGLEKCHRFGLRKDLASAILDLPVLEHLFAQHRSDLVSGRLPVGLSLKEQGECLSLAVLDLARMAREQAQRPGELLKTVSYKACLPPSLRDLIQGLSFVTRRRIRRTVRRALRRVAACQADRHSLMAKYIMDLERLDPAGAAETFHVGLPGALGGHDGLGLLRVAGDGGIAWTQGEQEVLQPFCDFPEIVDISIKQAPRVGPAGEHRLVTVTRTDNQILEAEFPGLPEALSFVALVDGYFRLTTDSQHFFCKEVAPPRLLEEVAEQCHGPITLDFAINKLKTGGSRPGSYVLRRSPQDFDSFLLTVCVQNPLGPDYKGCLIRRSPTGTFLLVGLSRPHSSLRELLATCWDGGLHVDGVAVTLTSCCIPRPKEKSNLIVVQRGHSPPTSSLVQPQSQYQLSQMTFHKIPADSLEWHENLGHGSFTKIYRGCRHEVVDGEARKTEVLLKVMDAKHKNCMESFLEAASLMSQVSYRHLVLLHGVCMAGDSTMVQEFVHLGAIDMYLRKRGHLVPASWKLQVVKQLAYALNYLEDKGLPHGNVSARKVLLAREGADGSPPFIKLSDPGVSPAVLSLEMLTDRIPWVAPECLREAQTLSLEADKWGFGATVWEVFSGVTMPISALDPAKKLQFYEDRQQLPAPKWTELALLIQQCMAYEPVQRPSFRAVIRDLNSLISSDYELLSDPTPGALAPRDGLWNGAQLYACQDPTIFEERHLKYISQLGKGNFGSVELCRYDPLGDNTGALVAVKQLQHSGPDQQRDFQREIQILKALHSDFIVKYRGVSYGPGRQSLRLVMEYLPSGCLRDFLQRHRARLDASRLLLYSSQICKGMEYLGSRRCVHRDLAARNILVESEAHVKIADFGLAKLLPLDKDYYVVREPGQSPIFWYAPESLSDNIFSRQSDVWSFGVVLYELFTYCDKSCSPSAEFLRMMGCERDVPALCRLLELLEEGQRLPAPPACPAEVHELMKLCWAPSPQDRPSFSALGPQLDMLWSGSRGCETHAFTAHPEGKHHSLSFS
Briefly: Biochemical potency on JAK3, TR-FRET (LANCE Ultra kinase assay). As to conditions: ATP corresponding to Km; cell-free; read-out: JAK3 inhibitory activity (pIC50) (converted). The procedure, abridged:
as §1

The target in a further assay is JAK1 (Homo sapiens, UniProt P23458). Briefly: Biochemical potency on JAK1, TR-FRET (LANCE Ultra kinase assay). The note with it: ATP corresponding to Km; cell-free; read-out: JAK1 inhibitory activity (pIC50) (converted). The procedure, abridged:
as §1

In assay [1] the test system is pSTAT6 in BEAS-2B human cell line. Briefly: Inhibition of IL-13 induced pSTAT6 in BEAS. The class given is cell-based. As to conditions: for IC50: Homo sapiens, BEAS-2B, 0.5 h, IL-13 trigger, 30 min, parent compound; for Fold difference parent vs predicted acid metabolite: ratio=IC50 predicted acid metabolite/IC50 ester. In outline: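 BEAS-2B cells grown 48 h, pre-treated 30 min with compound, then stimulated 30 min with IL-13. Lysate pSTAT6 (Tyr641) measured by sandwich ELISA. Eleven 5-fold dilutions from 10 μM, in duplicate, fitted to IC50.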

A further assay has as its target TYK2 (Homo sapiens, UniProt P29597). Briefly: Biochemical potency on Tyk2, TR-FRET (LANCE Ultra kinase assay). As to conditions: ATP corresponding to Km; cell-free; read-out: TYK2 inhibitory activity (pIC50) (converted). The procedure, abridged:
as §1

Sequence of JAK1 (P23458 whole entry): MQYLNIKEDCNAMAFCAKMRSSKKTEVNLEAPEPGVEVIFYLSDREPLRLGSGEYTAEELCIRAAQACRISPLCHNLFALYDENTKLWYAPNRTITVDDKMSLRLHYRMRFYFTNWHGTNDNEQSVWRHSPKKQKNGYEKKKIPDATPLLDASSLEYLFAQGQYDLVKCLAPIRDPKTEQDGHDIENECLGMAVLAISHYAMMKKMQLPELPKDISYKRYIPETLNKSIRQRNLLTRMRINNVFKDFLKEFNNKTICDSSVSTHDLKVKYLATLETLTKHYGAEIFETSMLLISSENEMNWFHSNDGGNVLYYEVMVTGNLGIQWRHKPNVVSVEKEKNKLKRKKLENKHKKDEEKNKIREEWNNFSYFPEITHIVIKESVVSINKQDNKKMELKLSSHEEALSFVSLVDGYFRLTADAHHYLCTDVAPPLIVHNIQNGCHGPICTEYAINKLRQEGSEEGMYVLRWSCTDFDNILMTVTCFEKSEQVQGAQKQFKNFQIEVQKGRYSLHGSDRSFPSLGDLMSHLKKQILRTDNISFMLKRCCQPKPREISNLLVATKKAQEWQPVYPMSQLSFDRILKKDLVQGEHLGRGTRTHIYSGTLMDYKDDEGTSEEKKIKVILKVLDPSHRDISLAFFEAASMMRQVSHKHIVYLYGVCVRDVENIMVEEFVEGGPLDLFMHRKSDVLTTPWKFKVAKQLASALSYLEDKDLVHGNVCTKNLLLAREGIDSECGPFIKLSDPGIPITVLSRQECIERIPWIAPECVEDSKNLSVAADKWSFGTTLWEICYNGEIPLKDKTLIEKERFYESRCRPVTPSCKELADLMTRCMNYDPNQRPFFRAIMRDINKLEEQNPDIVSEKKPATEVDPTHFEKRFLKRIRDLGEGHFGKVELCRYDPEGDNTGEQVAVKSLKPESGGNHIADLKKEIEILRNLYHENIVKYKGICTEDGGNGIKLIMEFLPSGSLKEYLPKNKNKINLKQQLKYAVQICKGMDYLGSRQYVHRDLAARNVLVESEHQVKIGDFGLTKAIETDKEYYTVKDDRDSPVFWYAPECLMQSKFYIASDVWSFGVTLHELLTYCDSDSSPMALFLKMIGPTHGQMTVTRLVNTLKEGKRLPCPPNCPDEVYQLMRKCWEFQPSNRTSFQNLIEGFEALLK
Sequence of TYK2 (P29597 whole entry): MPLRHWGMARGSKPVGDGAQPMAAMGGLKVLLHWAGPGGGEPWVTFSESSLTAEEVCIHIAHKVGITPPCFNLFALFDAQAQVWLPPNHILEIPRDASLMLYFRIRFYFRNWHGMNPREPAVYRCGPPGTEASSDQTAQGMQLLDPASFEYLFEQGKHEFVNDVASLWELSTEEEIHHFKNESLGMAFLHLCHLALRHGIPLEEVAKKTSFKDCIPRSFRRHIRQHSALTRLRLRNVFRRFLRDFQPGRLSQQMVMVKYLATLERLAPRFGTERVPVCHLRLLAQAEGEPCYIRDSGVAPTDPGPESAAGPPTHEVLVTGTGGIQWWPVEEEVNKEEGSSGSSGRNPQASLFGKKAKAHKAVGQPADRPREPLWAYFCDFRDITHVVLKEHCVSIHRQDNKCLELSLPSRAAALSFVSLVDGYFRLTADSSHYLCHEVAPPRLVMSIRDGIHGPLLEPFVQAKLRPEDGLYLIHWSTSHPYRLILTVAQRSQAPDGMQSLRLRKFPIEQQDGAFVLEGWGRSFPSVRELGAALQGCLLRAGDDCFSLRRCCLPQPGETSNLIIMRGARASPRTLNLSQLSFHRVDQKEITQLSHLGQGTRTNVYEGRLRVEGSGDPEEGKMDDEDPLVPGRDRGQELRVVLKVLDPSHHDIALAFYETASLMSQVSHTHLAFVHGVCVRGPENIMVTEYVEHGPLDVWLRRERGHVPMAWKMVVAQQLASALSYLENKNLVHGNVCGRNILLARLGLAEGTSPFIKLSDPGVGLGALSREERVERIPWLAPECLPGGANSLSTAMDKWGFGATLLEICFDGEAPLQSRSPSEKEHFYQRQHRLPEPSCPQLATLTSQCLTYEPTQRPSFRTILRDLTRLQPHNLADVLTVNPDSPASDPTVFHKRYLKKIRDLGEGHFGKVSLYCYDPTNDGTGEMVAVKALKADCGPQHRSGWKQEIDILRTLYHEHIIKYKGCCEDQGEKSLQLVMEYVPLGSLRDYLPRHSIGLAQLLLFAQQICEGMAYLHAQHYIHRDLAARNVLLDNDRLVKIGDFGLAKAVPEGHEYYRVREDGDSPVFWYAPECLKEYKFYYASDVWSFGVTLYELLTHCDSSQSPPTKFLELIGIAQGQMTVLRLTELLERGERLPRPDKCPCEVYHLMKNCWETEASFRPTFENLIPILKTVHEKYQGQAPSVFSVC

As to `COc1cc2c(cc1-n1nc(C(=O)NCCN3CCC(C(=O)OCC(C)(C)O)CC3)c3cnc(-c4cnn5cccnc45)cc31)OCCN2` [Example 14, 2-hydroxy-2-methylpropyl 1-(2-(1-(6-methoxy-3,4-dihydro-2H-benzo[b][1,4]oxazin-7-yl)-6-(pyrazolo[1,5-a]pyrimidin-3-yl)-1H-pyrazolo[4,3-c]pyridine-3-carboxamido)ethyl)piperidine-4-carboxylate], the IC50 at JAK2 is not above 5.01 nM; at JAK3, not above 5.01 nM; at JAK1, not above 5.01 nM; in assay [1], not above 5.01 nM; at TYK2, 5.01 to 50.1 nM. Moreover, in assay [1], the “Fold difference parent vs predicted acid metabolite” value is listed as “kkkk (ratio≥200)”.

On to `CCOC(=O)C1(C)CCN(CCNC(=O)c2nn(-c3cc4c(cc3OC)NCCO4)c3cc(-c4cnn5cccnc45)ncc23)CC1` [Example 34, ethyl 1-(2-(1-(6-methoxy-3,4-dihydro-2H-benzo[b][1,4]oxazin-7-yl)-6-(pyrazolo[1,5-a]pyrimidin-3-yl)-1H-pyrazolo[4,3-c]pyridine-3-carboxamido)ethyl)-4-methylpiperidine-4-carboxylate], for which the IC50 is not above 5.01 nM on JAK2; not above 5.01 nM at JAK3; not above 5.01 nM at JAK1; 5.01 to 50.1 nM in assay [1]; 5.01 to 50.1 nM at TYK2.

For `CCOC(=O)C1CN(CCNC(=O)c2nn(-c3cc4c(cc3OC)NCCO4)c3cc(-c4cnn5cccnc45)ncc23)C1` [Example 31, ethyl 1-(2-(1-(6-methoxy-3,4-dihydro-2H-benzo[b][1,4]oxazin-7-yl)-6-(pyrazolo[1,5-a]pyrimidin-3-yl)-1H-pyrazolo[4,3-c]pyridine-3-carboxamido)ethyl)azetidine-3-carboxylate], the IC50 on JAK2 is not above 5.01 nM; at JAK3, not above 5.01 nM; at JAK1, not above 5.01 nM; in assay [1], 5.01 to 50.1 nM; on TYK2, 5.01 to 50.1 nM.

Regarding `COc1cc2c(cc1-n1nc(C(=O)NCCN3CCC(C(=O)OCC(F)(F)F)CC3)c3cnc(-c4cnn5cccnc45)cc31)OCCN2` [Example 13, 2,2,2-trifluoroethyl 1-(2-(1-(6-methoxy-3,4-dihydro-2H-benzo[b][1,4]oxazin-7-yl)-6-(pyrazolo[1,5-a]pyrimidin-3-yl)-1H-pyrazolo[4,3-c]pyridine-3-carboxamido)ethyl)piperidine-4-carboxylate], the IC50 at JAK2 was not above 5.01 nM; at JAK3 it was not above 5.01 nM; at JAK1, not above 5.01 nM; in assay [1], not above 5.01 nM; on TYK2, 5.01 to 50.1 nM. Further, the “Fold difference parent vs predicted acid metabolite” value in assay [1] is recorded as “kkkk (ratio≥200)”.

`COc1cc2c(cc1-n1nc(C(=O)NCCN3CCC(C(=O)OC4CCN(C)C4)CC3)c3cnc(-c4cnn5cccnc45)cc31)OCCN2` (centres unmarked) [Example 22, 1-methylpyrrolidin-3-yl 1-(2-(1-(6-methoxy-3,4-dihydro-2H-benzo[b][1,4]oxazin-7-yl)-6-(pyrazolo[1,5-a]pyrimidin-3-yl)-1H-pyrazolo[4,3-c]pyridine-3-carboxamido)ethyl)piperidine-4-carboxylate]: the IC50 is not above 5.01 nM on JAK2; not above 5.01 nM on JAK3; 5.01 to 50.1 nM on JAK1; 5.01 to 50.1 nM in assay [1]; 5.01 to 50.1 nM at TYK2. In addition, in assay [1], the “Fold difference parent vs predicted acid metabolite” value is reported as “kkk (200>ratio≥100)”.

Regarding `CCOC(=O)[C@@H]1C[C@@H]2CN(CCNC(=O)c3nn(-c4cc5c(cc4OC)NCCO5)c4cc(-c5cnn6cccnc56)ncc34)C[C@@H]2C1` [Example 32], the IC50 is not above 5.01 nM at JAK2; not above 5.01 nM on JAK3; not above 5.01 nM at JAK1; 5.01 to 50.1 nM in assay [1]; 5.01 to 50.1 nM on TYK2.

As for `CCOC(=O)C1CCCN(CCNC(=O)c2nn(-c3cc4c(cc3OC)NCCO4)c3cc(-c4cnn5cccnc45)ncc23)C1` (centres unmarked) [Example 27, ethyl 1-(2-(1-(6-methoxy-3,4-dihydro-2H-benzo[b][1,4]oxazin-7-yl)-6-(pyrazolo[1,5-a]pyrimidin-3-yl)-1H-pyrazolo[4,3-c]pyridine-3-carboxamido)ethyl)piperidine-3-carboxylate], the IC50 at JAK2 was not above 5.01 nM; on JAK3, not above 5.01 nM; on JAK1, not above 5.01 nM; in assay [1], 5.01 to 50.1 nM; on TYK2, 5.01 to 50.1 nM.

For `COc1cc2c(cc1-n1nc(C(=O)NCCN3CC[C@H](C(=O)O[C@@H]4CCN(C)C4)C3)c3cnc(-c4cnn5cccnc45)cc31)OCCN2` [Example 56, (R)-1-methylpyrrolidin-3-yl (S)-1-(2-(1-(6-methoxy-3,4-dihydro-2H-benzo[b][1,4]oxazin-7-yl)-6-(pyrazolo[1,5-a]pyrimidin-3-yl)-1H-pyrazolo[4,3-c]pyridine-3-carboxamido)ethyl)pyrrolidine-3-carboxylate], the IC50 was not above 5.01 nM on JAK2; not above 5.01 nM on JAK3; not above 5.01 nM at JAK1; 5.01 to 50.1 nM in assay [1]; 5.01 to 50.1 nM on TYK2. In assay [1], the “Fold difference parent vs predicted acid metabolite” value is “kk (100>ratio≥10)”.

On to `CCOC(=O)C1CCN(CCNC(=O)c2nn(-c3cc4c(cc3OC)NCCS4)c3cc(-c4cnn5cccnc45)ncc23)CC1` [Example 1, ethyl 1-(2-(1-(6-methoxy-3,4-dihydro-2H-benzo[b][1,4]thiazin-7-yl)-6-(pyrazolo[1,5-a]pyrimidin-3-yl)-1H-pyrazolo[4,3-c]pyridine-3-carboxamido)ethyl)piperidine-4-carboxylate], for which the IC50 (at JAK2; on JAK3; on JAK1; in assay [1]; at TYK2) was not above 5.01 nM in each case. In addition, in assay [1], the “Fold difference parent vs predicted acid metabolite” value is “kk (100>ratio≥10)”.

`COc1cc2c(cc1-n1nc(C(=O)NCCN3CCC(C(=O)O[C@H]4CN(C)C[C@@H]4F)CC3)c3cnc(-c4cnn5cccnc45)cc31)OCCN2` [Example 50, (3S,4S)-4-fluoro-1-methylpyrrolidin-3-yl 1-(2-(1-(6-methoxy-3,4-dihydro-2H-benzo[b][1,4]oxazin-7-yl)-6-(pyrazolo[1,5-a]pyrimidin-3-yl)-1H-pyrazolo[4,3-c]pyridine-3-carboxamido)ethyl)piperidine-4-carboxylate]: the IC50 at JAK2 was not above 5.01 nM; on JAK3 it was not above 5.01 nM; on JAK1, not above 5.01 nM; in assay [1] it was not above 5.01 nM; at TYK2 it was 5.01 to 50.1 nM. The “Fold difference parent vs predicted acid metabolite” value in assay [1] was “kkkk (ratio≥200)”.

Take `COc1cc2c(cc1-n1nc(C(=O)NCCN3CCC(C(=O)OCC(C)(C)C#N)CC3)c3cnc(-c4cnn5cccnc45)cc31)OCCN2` [Example 25, 2-cyano-2-methylpropyl 1-(2-(1-(6-methoxy-3,4-dihydro-2H-benzo[b][1,4]oxazin-7-yl)-6-(pyrazolo[1,5-a]pyrimidin-3-yl)-1H-pyrazolo[4,3-c]pyridine-3-carboxamido)ethyl)piperidine-4-carboxylate]: the IC50 at JAK2 is not above 5.01 nM; at JAK3, not above 5.01 nM; on JAK1, not above 5.01 nM; in assay [1], not above 5.01 nM; at TYK2, 5.01 to 50.1 nM. For the same compound, the “Fold difference parent vs predicted acid metabolite” value in assay [1] is listed as “kkkk (ratio≥200)”.
